How the values were obtained:
[1] = tested on: P RNA; test: Gel-based activity assay, bipartite pre-tRNA substrate, P RNA alone; type: biochemical, T. maritima; conditions: 100 mM AmOAc, 10 mM MgCl2
Procedure: (§1) For gel-based activity assays, reactions were prepared as described in the previous section (fluorescence activity assay), incubated for 1–15 min at 37–50°C, then loaded onto a denaturing 7 M urea–20% acrylamide gel in the case of the Mh substrate or 19% acrylamide (40% acrylamide/bisacrylamide 38.5:1.5) for the bipartite pre-tRNA substrate. The activity conditions for the gel reported in Figure 3A, to monitor the cleavage of the holoenzyme and P RNA, were under 100 mM AmOAc and 10 mM MgCl2. The gels (13 × 16 × 0.15 cm) were electrophoresed at 20 V/cm for 2–3 h. UV shadowing or ethidium bromide staining was used to visualize RNA cleavage. Detection of minihelix fluorescence was achieved without staining using a UV lamp with excitation at ∼254 nm.
Figure 3. The inhibitors purpurin and hematein bind to the holoenzyme. (A) Top. […] Bottom. […] (B) The relative affinities of the inhibitors for the P RNA or the holoenzyme differ. Binding sensorgrams obtained by biolayer interferometry (BLI). P RNA or RNase P holoenzyme was immobilized on super streptavidin (SSA) biosensors through a 5′-biotinylated RNA oligonucleotide complementary to a region on the P1 stem of P RNA (see Materials and Methods). […] In contrast, gentian violet binds not only to P RNA but also to the Mh substrate (Supplementary Figure S16). (C) Molecular Dynamics (MD) simulations of RNase P protein in complex with the validated inhibitors. In each panel, semitransparent spheres represent the geometric center, over a 200 ns trajectory, of the corresponding tested compound. The 5′-leader (yellow) is shown for reference purposes only; it was not included in the simulation. Sphere color coding indicates the starting and final positions in blue and red, respectively. […] Purpurin's starting conformation corresponds to that observed in the crystal structure in complex with the P protein (PDB code: 6MAX. See Figure 5).

[2] = molecular target: T1, RNase P holoenzyme from T. maritima (Thermotoga maritima, UniProt Q9X1H4); test: End-point urea-PAGE RNase P activity assay with canonical pre-tRNA substrate; type: biochemical; conditions: 10% DMSO
T1 construct: made in house
T1 sequence (Q9X1H4 1-117): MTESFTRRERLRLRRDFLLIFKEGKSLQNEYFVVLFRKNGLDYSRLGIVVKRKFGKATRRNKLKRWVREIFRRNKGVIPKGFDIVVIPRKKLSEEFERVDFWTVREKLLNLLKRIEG
Procedure: Supplementary Figure 11 . End-point urea-PAGE RNase P activity assays using a canonical pre-tRNA substrate are in agreement with the fluorescence inhibition experiments. RNase P holoenzyme from T. maritima is inhibited by the four validated hits, as observed in an 18% urea- PAGE end-point assay. RNase P holoenzyme was incubated in the presence of 10% DMSO (+) or different concentrations of compound for 30 min at 37°C. See also Supplementary Figure […]
Supplementary Figure 12. End-point urea-PAGE RNase P activity assays using a canonical pre-tRNA substrate are in agreement with the fluorescence inhibition experiments using the minihelix substrate. Compound-dependent disappearance of the pre-tRNA substrate, with a […]
biological substrate for the inhibitors (juglone and purpurin). The assays were performed under the following conditions: 66 nM RNase P holoenzyme, in a total volume of 20 µL in activity buffer (33 mM Tris, 66 mM HEPES pH 7.4, 400 mM ammonium acetate, 100 mM MgCl2) were incubated in the presence of 10% DMSO (+) or different concentrations of compound for 30 min at 37° C. Then, pre-tRNA was added to a final concentration of 1.6 µM and the reaction was incubated at 55° C for 25 min before gel loading. […]

[3] = molecular target: T2, RNase P holoenzyme (Thermotoga maritima, UniProt Q9X1H4); test: Gel-based activity assay, bipartite pre-tRNA substrate, holoenzyme; type: biochemical, T. maritima; conditions: 100 mM AmOAc, 10 mM MgCl2
T2 construct: GST (cleaved yes); made in house; host or cells: E. coli BL21(DE3)pLysS
T2 sequence (Q9X1H4 1-117): T1 sequence (Q9X1H4 1-117)
Procedure: as §1
Figure 3. The inhibitors purpurin and hematein bind to the holoenzyme. (A) Top. […] Bottom. […] (B) The relative affinities of the inhibitors for the P RNA or the holoenzyme differ. Binding sensorgrams obtained by biolayer interferometry (BLI). P RNA or RNase P holoenzyme was immobilized on super streptavidin (SSA) biosensors through a 5′-biotinylated RNA oligonucleotide complementary to a region on the P1 stem of P RNA (see Materials and Methods). […] In contrast, gentian violet binds not only to P RNA but also to the Mh substrate (Supplementary Figure S16). […]

[4] = tested on: P RNA; test: Biolayer interferometry binding to immobilized P RNA; set-up: species or system T. maritima; conditions: BLI, P RNA on SSA biosensors via biotinylated oligonucleotide
Procedure: Real-time binding assays of the holoenzyme, P RNA, P protein, the substrate minihelix and the 5′-leader to individual compounds were performed by biolayer interferometry using an Octet RED96 system (ForteBio). For the holoenzyme or P RNA, a 5′ biotinylated RNA oligonucleotide with the sequence 5′biotin-CAUUCCAGACGAU was immobilized on Super Streptavidin (SSA) biosensors. Then, a modified P RNA or holoenzyme was added. The P RNA modification consisted of a sequence with part of the P1 stem sequence complementary to the biotinylated oligonucleotide (AUCGUCUGGA) (Supplementary Figure S23A). P1 is far from the active site or other regions involved in specific interactions (Supplementary Figure S23B) ([19]). The activity of this construct was indistinguishable from the wild-type holoenzyme. Alternatively, the holoenzyme was immobilized through the His-tagged P protein from T. maritima at 0.05 mg/ml (3.4 μM) on Ni-NTA biosensors. Control biosensors were used to subtract non-specific binding of compounds to the biosensor surface. All assay steps (immobilization, wash, baseline, association, and dissociation) were performed in 20 mM HEPES pH 7.4, 100 mM ammonium acetate, 10 mM MgCl2, 2.5% DMSO. The assays were performed on black bottom 96-well microplates (Greiner Bio-One 655209) in a total volume of 200 μl, at 30°C with orbital shaking at 1000 rpm. Experiments were controlled with the software Data Acquisition 8.2 (ForteBio, Inc.). Kinetic binding parameters were calculated using Data Analysis 8.2 (ForteBio, Inc.). After subtraction of reference biosensors, the binding curves were aligned to the X- and Y-axis and the association-dissociation inter-step curve in order to get a common baseline for the association and dissociation phases.
Figure 3. The inhibitors purpurin and hematein bind to the holoenzyme. (A) Top. […] Bottom. […] (B) The relative affinities of the inhibitors for the P RNA or the holoenzyme differ. Binding sensorgrams obtained by biolayer interferometry (BLI). […]

Compound | Inhibition of the P RNA reaction [1] | Inhibition of pre-tRNA cleavage (urea-PAGE end-point) [2] | Inhibition of the holoenzyme reaction [3] | Binding to P RNA [4]
O=C1C=CC(=O)c2c(O)cccc21 [Juglone, 5-hydroxy-1,4-naphthoquinone] | less clear behavior | confirms the inhibition |  | 
O=C1C=C2CC3(O)COc4c(ccc(O)c4O)C3=C2C=C1O (stereo not drawn) [Hematein, 3,4,6a,10-tetrahydroxy-6a,7-dihydroindeno[2,1-c]chromen-9(6H)-one] | not the P RNA alone |  | inhibit the reaction catalyzed by the RNase P holoenzyme | binds only slightly to P RNA
O=C1c2ccccc2C(=O)c2c(O)c(O)cc(O)c21 [Purpurin, 1,2,4-trihydroxyanthraquinone] | not the P RNA alone | confirms the inhibition | inhibit the reaction catalyzed by the RNase P holoenzyme | does not bind to P RNA

— paper PMC6614837 (Nucleic Acids Research, 2019)
